Data on 23 compounds can be found in publication PMC10500703 (Journal of medicinal chemistry, 2021).

Values after ≈ are worked out from the molar mass of the structure shown. Read-outs that look alike come from different tables or passages of the source. A value given as a limit tells only on which side of the number the result lay.

Data set [1] has as its system Mtb H37Rv. Briefly: microbe, parasite or virus in culture. To be noted: Mycobacterium tuberculosis.
Data set [2] in a line: physchem. Particulars: pH 7.
Data set [3] is described as follows: Mouse PK, intravenous dosing. It is filed as in vivo. To be noted: for half-life at 24 h: in vivo, iv, 2 mg/kg; for CLb: total body clearance from whole blood.
The format of data set [4] is in vivo, mouse. Particulars: for exposure on oral dosing: oral dosing (data not shown).
Data set [5] concerns replicating Mtb. It counts as cell-based, Mycobacterium tuberculosis.
The test system of data set [6] is non-replicating Mtb. It is filed as cell-based, Mycobacterium tuberculosis.
Data set [7] in a line: Microsomal clearance. It is filed as in vitro ADME. Particulars: rat microsomes.
A short description of data set [8]: Microsomal clearance. It counts as in vitro ADME. Particulars: human microsomes.
Data set [9] concerns Mtb Erdman strain. It counts as cell-based, Mycobacterium tuberculosis.
Data set [10] relates to Mtb H37Rv.
A short description of data set [11]: Microsomal clearance. It is filed as in vitro ADME. To be noted: mouse microsomes.
Data set [12] concerns Mtb H37RvMA. It is filed as cell-based, Mycobacterium tuberculosis.
For data set [13], the system named is Human plasma protein. In words: Human plasma protein binding. It is filed as in vitro ADME. Particulars: fraction unbound.
The subject of data set [14] is intracellular Mtb. It counts as cell-based, Mycobacterium tuberculosis. Particulars: read-out: IC90 against intracellular Mtb.
The conditions of data set [15]: aqueous pH 7.4 phosphate buffer simulating thermodynamic conditions.
Data set [16] is described as follows: LogD. It is filed as physicochemical.
The test system of data set [17] is Mtb isolate S1125. Briefly: microbe, parasite or virus in culture. It counts as cell-based. To be noted: Mycobacterium tuberculosis.

`CS(=O)(=O)NC(=O)CCc1cn(-c2ccc(Br)cc2)nc1C1CCN(C=O)CC1` [Compound 22, 3-(1-(4-bromophenyl)-3-(1-formylpiperidin-4-yl)-1H-pyrazol-4-yl)-N-(methylsulfonyl)propanamide] displayed an MIC in [1] of at least 50 µM.
The solubility is the concentration that dissolves in the medium under given conditions. High values mean a readily soluble substance, low ones a poorly soluble substance. As to `CS(=O)(=O)NC(=O)/C=C/c1cn(-c2ccc(Br)cc2)nc1-c1ccncc1` [Compound 39, (E)-3-(1-(4-bromophenyl)-3-(pyridin-4-yl)-1H-pyrazol-4-yl)-N-(methylsulfonyl)acrylamide], the MIC in data set [1] was 1.2 to 4.7 µM (≈ 0.537 to 2.1 µg/mL). In addition, in data set [2], the concentration in solution (solubility) came to 185 µM (≈ 82.8 µg/mL).
One may read the half-life as the time needed for the level to fall by half in the phase considered. The low end stands for fast loss, the high end for slow loss. Regarding `CS(=O)(=O)NC(=O)NCc1cn(-c2ccc(Cl)cc2)nc1-c1ccncc1` [Compound 43, N-(((1-(4-chlorophenyl)-3-(pyridin-4-yl)-1H-pyrazol-4-yl)methyl)carbamoyl)methanesulfonamide], the half-life at 24 h in data set [3] is 2 h. In [3] (intravenous 2 mg/kg), this compound showed a CLb above 200 mL/min/kg.
In data set [3] (intravenous 2 mg/kg), `CS(=O)(=O)NC(=O)CCc1cn(-c2ccc(C(F)(F)F)nc2)nc1-c1ccc(Cl)cc1` [Compound 10, 3-(3-(4-chlorophenyl)-1-(6-(trifluoromethyl)pyridin-3-yl)-1H-pyrazol-4-yl)-N-(methylsulfonyl)propanamide] registered a CLb of 67.4 mL/min/kg.
Turning to `CCS(=O)(=O)NC(=O)CCc1cn(-c2ccc(Br)cc2)nc1-c1ccc(Cl)cc1` [Compound 33, 3-(1-(4-bromophenyl)-3-(4-chlorophenyl)-1H-pyrazol-4-yl)-N-(ethylsulfonyl) propanamide], the MIC in data set [1] is 12.5 µM (≈ 6.21 µg/mL).
In data set [3] (intravenous 2 mg/kg), `CS(=O)(=O)NC(=O)CCc1cn(-c2ccc(Br)cc2)nc1C1CCOCC1` [Compound 20, 3-(1-(4-bromophenyl)-3-(tetrahydro-2H-pyran-4-yl)-1H-pyrazol-4-yl)-N-(methylsulfonyl)propanamide] registered a CLb of 145 mL/min/kg.
`CS(=O)(=O)NC(=O)CCc1cn(-c2ccc(Br)cc2)nc1-c1ccc([N+](=O)[O-])cc1` [Compound 23, 3-(1-(4-bromophenyl)-3-(4-nitrophenyl)-1H-pyrazol-4-yl)-N-(methylsulfonyl)propanamide] yielded an MIC in [1] of 12.5 µM (≈ 6.17 µg/mL).
Take `CS(=O)(=O)NC(=O)NCc1cc(-c2ccc(Br)cc2)oc1-c1ccncc1` [Compound 58, N-(((5-(4-bromophenyl)-2-(pyridin-4-yl)furan-3-yl)methyl)carbamoyl)methanesulfonamide]: the CLb in data set [3] (intravenous 2 mg/kg) was above 200 mL/min/kg.
For `CS(=O)(=O)NC(=O)CCc1cn(-c2ccc(Br)cc2)nc1-c1cccc(Cl)c1` [Compound 14, 3-(1-(4-bromophenyl)-3-(3-chlorophenyl)-1H-pyrazol-4-yl)-N-(methylsulfonyl)propanamide], the MIC in data set [1] is 2.3 µM (≈ 1.11 µg/mL).
Turning to `CS(=O)(=O)NC(=O)CCc1cc(-c2ccc(Br)cc2)nn1-c1ccc(Cl)cc1` [Compound 51, 3-(3-(4-bromophenyl)-1-(4-chlorophenyl)-1H-pyrazol-5-yl)-N-(methylsulfonyl)propanamide], the “exposure on oral dosing” value in data set [4] was “high exposure”. Besides, the CLb in [3] (intravenous 2 mg/kg) is 3.13 mL/min/kg.
On to `CS(=O)(=O)NC(=O)CCc1cn(-c2ccc(F)cc2)nc1-c1ccc(Cl)cc1` [Compound 3, 3-(3-(4-chlorophenyl)-1-(4-fluorophenyl)-1H-pyrazol-4-yl)-N-(methylsulfonyl)propanamide], for which, in [1], the MIC was at least 50 µM.
Regarding `CS(=O)(=O)NC(=O)C1CC1c1cn(-c2ccc(Br)cc2)nc1-c1ccncc1` (stereo not shown) [Compound 41, 2-(1-(4-bromophenyl)-3-(pyridin-4-yl)-1H-pyrazol-4-yl)-N-(methylsulfonyl)cyclopropane-1-carboxamide], the MIC in data set [1] was 12.5 to 19 µM (≈ 5.77 to 8.77 µg/mL).
On the same count and under the same terms, under `CS(=O)(=O)NC(=O)CCc1nn(-c2ccc(Br)cc2)cc1-c1ccc(Cl)cc1` [Compound 53, 3-(1-(4-bromophenyl)-4-(4-chlorophenyl)-1H-pyrazol-3-yl)-N-(methylsulfonyl)propanamide] stands at least 50 µM.
As for `CS(=O)(=O)NC(=O)CCc1cn(-c2ccc(Br)cc2)nc1-c1ccc(Cl)cc1` [Compound 1, 3-(1-(4-bromophenyl)-3-(4-chlorophenyl)-1H-pyrazol-4-yl)-N-(methylsulfonyl)propanamide], the “exposure on oral dosing” value in data set [4] is “high exposure”. In addition, in [5], the “log CFU reduction” value is reported as 2–2.5 log CFU. In addition, the “activity against non-replicating Mtb” value in [6] is “not active”. In data set [3], the half-life at 24 h was 2 h. The compound further came in with a CLb in data set [3] (intravenous 2 mg/kg) of 1.18 mL/min/kg.
Broadly, the bioavailability is the share of a dose that reaches the circulation, judged against a reference dose that is usually intravenous. Higher therefore signals good availability. The term Vd denotes the apparent volume that relates the amount in the body to the concentration in plasma or blood. Broadly, the IC90 is the point of the concentration-response curve where the effect stands at 90%. Usually LogD stands for the decadic logarithm of the distribution of all forms, ionised or not, between an organic phase and buffer at a given pH. High values mean higher lipophilicity, low ones lower lipophilicity. In the case of “3-(1,3-bis(4-chlorophenyl)-1H-pyrazol-5-yl)-N-(methylsulfonyl)propanamide [Compound 8]”, in data set [7], the “Microsomal clearance % remaining, Rat” value is above 99%. Also, the “Microsomal clearance % remaining, Human” value in data set [8] is reported as 98%. Moreover, the “MIC against the Mtb Erdman strain” value in data set [9] amounted to 9.1 µM. The “exposure on oral dosing” value in data set [4] is listed as “high exposure”. In addition, the bioavailability in data set [4] (oral dosing, even at high doses) is recorded as above 95%. In data set [5], the “log CFU reduction” value was 2–2.5 log CFU. The “activity against non-replicating Mtb” value in data set [6] is “not active”. The compound further registered an MIC in data set [10] of 4.7 µM. Besides, in data set [11], the “Microsomal clearance % remaining, Mouse” value stood at 87%. Further, the MIC in data set [12] was determined as 4 µM. In addition, the “Human PPB fu” value in data set [13] turned out to be 0.023. For the same compound, in data set [3] (intravenous 2 mg/kg), the “AUC0 – t” value was 4883 µmol·min/L, the Vd is 1.2 L/kg, the t½ terminal is listed as 3.6 h and the CLb is recorded as 2.56 mL/min/kg. Also, the IC90 in data set [14] came to 11 µM. The compound also showed a solubility in data set [15] of 100 µM. Besides, the LogD in data set [16] was determined as 2.0.
In the case of `CS(=O)(=O)NC(=O)OCc1cn(-c2ccc(Cl)cc2)nc1-c1ccncc1` [Compound 45, (1-(4-chlorophenyl)-3-(pyridin-4-yl)-1H-pyrazol-4-yl)methyl (methylsulfonyl)carbamate], the MIC in [1] amounted to 12.5 µM (≈ 5.09 µg/mL). Besides, the CLb in data set [3] (intravenous 2 mg/kg) was above 200 mL/min/kg.
Consider `CC(CC(=O)NS(C)(=O)=O)c1cn(-c2ccc(Cl)cc2)nc1-c1ccncc1` (stereo not shown) [Compound 37, 3-(1-(4-chlorophenyl)-3-(pyridin-4-yl)-1H-pyrazol-4-yl)-N-(methylsulfonyl)butanamide], for which, in data set [1], the MIC was at least 50 µM.
Consider `CS(=O)(=O)NC(=O)CCc1cn(-c2ccc(Br)cc2)nc1-c1ccncc1` [Compound 16, 3-(1-(4-bromophenyl)-3-(pyridin-4-yl)-1H-pyrazol-4-yl)-N-(methylsulfonyl)propanamide], for which, in data set [5], the “log CFU reduction” value is given as 2–2.5 log CFU. The “activity against non-replicating Mtb” value in data set [6] is “not active”. Further, in [3] (intravenous 2 mg/kg), the CLb is recorded as above 200 mL/min/kg. Moreover, in data set [17], the MIC was 15 to 30 µM (≈ 6.74 to 13.5 µg/mL).
In [1], `CS(=O)(=O)NC(=O)CCc1cn(-c2ccc(Cl)cc2)nc1-c1ccncc1` [Compound 35, 3-(1-(4-chlorophenyl)-3-(pyridin-4-yl)-1H-pyrazol-4-yl)-N-(methylsulfonyl)propanamide] came in with an MIC of 6.25 µM (≈ 2.53 µg/mL).
`CS(=O)(=O)NC(=O)CCc1cn(-c2ccc(Br)cc2)nc1-c1cccnc1` [Compound 17, 3-(1-(4-bromophenyl)-3-(pyridin-3-yl)-1H-pyrazol-4-yl)-N-(methylsulfonyl)propanamide] showed a CLb in data set [3] (intravenous 2 mg/kg) of 178 mL/min/kg.
Consider `CS(=O)(=O)NC(=O)C1CC1c1cn(-c2ccc(Cl)cc2)nc1-c1ccncc1` (stereo not shown) [Compound 40, 2-(1-(4-chlorophenyl)-3-(pyridin-4-yl)-1H-pyrazol-4-yl)-N-(methylsulfonyl)cyclopropane-1-carboxamide], for which the MIC in data set [1] lay within 12.5 to 19 µM (≈ 5.21 to 7.92 µg/mL). In data set [3] (intravenous 2 mg/kg), this compound yielded a CLb above 200 mL/min/kg.
As for `CS(=O)(=O)NC(=O)/C=C/c1cn(-c2ccc(Cl)cc2)nc1-c1ccncc1` [Compound 38, (E)-3-(1-(4-chlorophenyl)-3-(pyridin-4-yl)-1H-pyrazol-4-yl)-N-(methylsulfonyl)acrylamide], in [3] (intravenous 2 mg/kg), the CLb was above 200 mL/min/kg.
`O=c1[nH]c(CCc2cn(-c3ccc(Br)cc3)nc2-c2ccc(Cl)cc2)no1` [Compound 47, 3-(2-(1-(4-bromophenyl)-3-(4-chlorophenyl)-1H-pyrazol-4-yl)ethyl)-1,2,4-oxadiazol-5(4H)-one] returned an MIC in [1] (336 h) of at least 50 µM.
